Measured values published in patent US20240209019A1, “COMPOUNDS AND METHODS FOR TREATING HYPERKALEMIA” (ARDELYX, INC., priority 2019, published 2024).

Molecular target: HSD2 (Homo sapiens (Human), UniProt P80365)
Experiment: HSD2 activity: cortisol conversion in human descending colon organoid monolayer cultures (Example 112)
Details: human descending colon epithelial cultures on transwells; 30 minute pre-incubation, then 40 nM cortisol for four hours; cortisol HTRF assay
Protocol: Human descending colon epithelial stem cells were cultured as 3D organoids in accordance with Sato et al. Gastroenterology. […] Cultures were differentiated using SBM containing ENRA and 30 nM aldosterone on day 3, and cultures were used for assay on day 6 or 7. Compounds were diluted in DMSO and serial dilutions prepared by titrating in DMSO. Compounds were then diluted into DMEM/F12. Transwell plates containing descending colon cultures were washed twice with DMEM/F12 and compound was added to the apical compartment. Cells were incubated with test compound for 30 minutes at 37° C., 5% CO2 to equilibrate across the cell membrane. A second compound plate was prepared in which the serially diluted compounds in DMSO were diluted into DMEM/F12 containing 40 nM cortisol. Following the 30 minute pre-incubation step, the apical media was aspirated and compounds diluted in DMEM/F12 with 40 nM cortisol were added to the apical side of the transwell. The plate was then incubated for four hours at 37° C., 5% CO2. Cortisol levels were measured using a cortisol HTRF assay kit as described by the manufacturer (Cisbio). Concentration-response curves were then plotted and IC50 (and pIC50) values were determined using least squares non-linear regression.
Inhibition of HSD2 activity as measured by the inhibition of the conversion of cortisone to cortisol.

HSD2, sequence (P80365 whole entry): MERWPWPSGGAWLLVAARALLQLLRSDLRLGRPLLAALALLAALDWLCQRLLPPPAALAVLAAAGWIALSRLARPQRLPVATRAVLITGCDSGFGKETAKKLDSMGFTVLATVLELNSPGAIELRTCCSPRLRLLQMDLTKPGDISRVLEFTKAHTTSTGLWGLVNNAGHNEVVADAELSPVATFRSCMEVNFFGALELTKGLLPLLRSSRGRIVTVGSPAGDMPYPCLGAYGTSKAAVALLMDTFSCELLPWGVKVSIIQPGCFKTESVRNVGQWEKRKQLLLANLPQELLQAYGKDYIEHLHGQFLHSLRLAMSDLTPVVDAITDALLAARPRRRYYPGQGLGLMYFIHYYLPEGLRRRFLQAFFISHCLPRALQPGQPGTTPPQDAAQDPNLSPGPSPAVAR

| Structure (SMILES) | pIC50 |
| --- | --- |
| CC(=O)O[C@H]1CC[C@@]2(C)[C@@H](CC[C@]3(C)[C@@H]2C(=O)C=C2[C@@H]4C[C@@](C)(C(=O)O)CC[C@]4(C)CC[C@]23C)[C@]1(C)C(=O)OCc1oc(=O)oc1C(C)C [Compound 209-3, (2S,4aS,6aS,6bR,8aR,9S,10S,12aS,12bR,14bR)-10-acetoxy-9-(((5-isopropyl-2-oxo-1,3-dioxol-4-yl)methoxy)carbonyl)-2,4a,6a,6b,9,12a-hexamethyl-13-oxo-1,2,3,4,4a,5,6,6a,6b,7,8,8a,9,10,11,12,12a,12b,13,14b-icosahydropicene-2-carboxylic acid] | 7.2 |
| Cc1oc(=O)oc1COC(=O)COC[C@@]1(C)[C@@H]2CC[C@]3(C)[C@H](C(=O)C=C4[C@@H]5C[C@@](C)(C(=O)O)CC[C@]5(C)CC[C@]43C)[C@@]2(C)CC[C@@H]1O [Compound 240-8, (2S,4aS,6aS,6bR,8aR,9R,10S,12aS,12bR,14bR)-10-Hydroxy-2,4a,6a,6b,9,12a-hexamethyl-9-((2-((5-methyl-2-oxo-1,3-dioxol-4-yl)methoxy)-2-oxoethoxy)methyl)-13-oxo-1,2,3,4,4a,5,6,6a,6b,7,8,8a,9,10,11,12,12a,12b,13,14b-icosahydropicene-2-carboxylic acid] | 5 |
| CC(=O)O[C@H]1CC[C@@]2(C)[C@@H](CC[C@]3(C)[C@@H]2C(=O)C=C2[C@@H]4C[C@@](C)(C(=O)O)CC[C@]4(C)CC[C@]23C)[C@]1(C)C(=O)OCc1oc(=O)oc1C [Compound 243-1, (2S,4aS,6aS,6bR,8aR,9S,10S,12aS,12bR,14bR)-10-Acetoxy-2,4a,6a,6b,9,12a-hexamethyl-9-(((5-methyl-2-oxo-1,3-dioxol-4-yl)methoxy)carbonyl)-13-oxo-1,2,3,4,4a,5,6,6a,6b,7,8,8a,9,10,11,12,12a,12b,13,14b-icosahydropicene-2-carboxylic acid] | 7.5 |
| Cc1oc(=O)oc1COC(=O)[C@]1(C)[C@@H](OC(=O)CO)CC[C@@]2(C)[C@H]1CC[C@]1(C)[C@@H]2C(=O)C=C2[C@@H]3C[C@@](C)(C(=O)O)CC[C@]3(C)CC[C@]21C [Compound 244-1, (2S,4aS,6aS,6bR,8aR,9S,10S,12aS,12bR,14bR)-10-(2-Hydroxyacetoxy)-2,4a,6a,6b,9,12a-hexamethyl-9-(((5-methyl-2-oxo-1,3-dioxol-4-yl)methoxy)carbonyl)-13-oxo-1,2,3,4,4a,5,6,6a,6b,7,8,8a,9,10,11,12,12a,12b,13,14b-icosahydropicene-2-carboxylic acid] | 6.8 |
| COC(=O)N[C@H]1CC[C@@]2(C)[C@@H](CC[C@]3(C)[C@@H]2C(=O)C=C2[C@@H]4C[C@@](C)(C(=O)O)CC[C@]4(C)CC[C@]23C)[C@]1(C)C(=O)OCc1oc(=O)oc1C [Compound 281-3, (2S,4aS,6aS,6bR,8aR,9S,10S,12aS,12bR,14bR)-10-((methoxycarbonyl)amino)-2,4a,6a,6b,9,12a-hexamethyl-9-(((5-methyl-2-oxo-1,3-dioxol-4-yl)methoxy)carbonyl)-13-oxo-1,2,3,4,4a,5,6,6a,6b,7,8,8a,9,10,11,12,12a,12b,13,14b-icosahydropicene-2-carboxylic acid] | 6.7 |
| Cc1oc(=O)oc1COC(=O)[C@]1(C)[C@@H](OC(=O)NCCN2CCOCC2)CC[C@@]2(C)[C@H]1CC[C@]1(C)[C@@H]2C(=O)C=C2[C@@H]3C[C@@](C)(C(=O)O)CC[C@]3(C)CC[C@]21C [Compound 286-4, (2S,4aS,6aS,6bR,8aR,9S,10S,12aS,12bR,14bR)-2,4a,6a,6b,9,12a-hexamethyl-9-(((5-methyl-2-oxo-1,3-dioxol-4-yl)methoxy)carbonyl)-10-(((2-morpholinoethyl)carbamoyl)oxy)-13-oxo-1,2,3,4,4a,5,6,6a,6b,7,8,8a,9,10,11,12,12a,12b,13,14b-icosahydropicene-2-carboxylic acid] | 6.9 |
| CCc1oc(=O)oc1COC(=O)[C@]1(C)[C@@H](OC(C)=O)CC[C@@]2(C)[C@H]1CC[C@]1(C)[C@@H]2C(=O)C=C2[C@@H]3C[C@@](C)(C(=O)O)CC[C@]3(C)CC[C@]21C [Compound 316-1, (2S,4aS,6aS,6bR,8aR,9S,10S,12aS,12bR,14bR)-10-acetoxy-9-(((5-ethyl-2-oxo-1,3-dioxol-4-yl)methoxy)carbonyl)-2,4a,6a,6b,9,12a-hexamethyl-13-oxo-1,2,3,4,4a,5,6,6a,6b,7,8,8a,9,10,11,12,12a,12b,13,14b-icosahydropicene-2-carboxylic acid] | 7.5 |
| CC1(C)[C@@H](C(=O)OCC2COC(=O)O2)CC[C@]2(C)[C@H]3C(=O)C=C4[C@@H]5C[C@@](C)(C(=O)O)CC[C@]5(C)CC[C@@]4(C)[C@]3(C)CC[C@@H]12 (stereo partly drawn) [Compound 700-1, (2S,4aS,6aS,6bR,8aS,10S,12aS,12bR,14bR)-2,4a,6a,6b,9,9,12a-heptamethyl-13-oxo-10-{[(2-oxo-1,3-dioxolan-4-yl)methoxy]carbonyl}-1,2,3,4,4a,5,6,6a,6b,7,8,8a,9,10,11,12,12a,12b,13,14b-icosahydropicene-2-carboxylic acid] | 6.1 |
| CSCC(=O)O[C@H]1CC[C@@]2(C)[C@@H](CC[C@]3(C)[C@@H]2C(=O)C=C2[C@@H]4C[C@@](C)(C(=O)O)CC[C@]4(C)CC[C@]23C)[C@]1(C)C(=O)OCc1oc(=O)oc1C(C)C [Compound 701-1, (2S,4aS,6aS,6bR,8aR,9S,10S,12aS,12bR,14bR)-2,4a,6a,6b,9,12a-hexamethyl-10-{[2-(methylsulfanyl)acetyl]oxy}-13-oxo-9-({[2-oxo-5-(propan-2-yl)-2H-1,3-dioxol-4-yl]methoxy}carbonyl)-1,2,3,4,4a,5,6,6a,6b,7,8,8a,9,10,11,12,12a,12b,13,14b-icosahydropicene-2-carboxylic acid] | 7 |
| CC(=O)O[C@]1(C)CC[C@@]2(C)[C@@H](CC[C@]3(C)[C@@H]2C(=O)C=C2[C@@H]4C[C@@](C)(C(=O)O)CC[C@]4(C)CC[C@]23C)[C@]1(C)C(=O)OCc1oc(=O)oc1C(C)C [Compound 702-1, (2S,4aS,6aS,6bR,8aR,9S,10R,12aS,12bR,14bR)-10-(acetyloxy)-2,4a,6a,6b,9,10,12a-heptamethyl-13-oxo-9-({[2-oxo-5-(propan-2-yl)-2H-1,3-dioxol-4-yl]methoxy}carbonyl)-1,2,3,4,4a,5,6,6a,6b,7,8,8a,9,10,11,12,12a,12b,13,14b-icosahydropicene-2-carboxylic acid] | 6.4 |
| CCc1oc(=O)oc1COC(=O)[C@@]1(C)[C@@H]2CC[C@]3(C)[C@H](C(=O)C=C4[C@@H]5C[C@@](C)(C(=O)O)CC[C@]5(C)CC[C@]43C)[C@@]2(C)CC[C@@]1(C)OC(C)=O [Compound 703-1, (2S,4aS,6aS,6bR,8aR,9S,10R,12aS,12bR,14bR)-10-(acetyloxy)-9-{[(5-ethyl-2-oxo-2H-1,3-dioxol-4-yl)methoxy]carbonyl}-2,4a,6a,6b,9,10,12a-heptamethyl-13-oxo-1,2,3,4,4a,5,6,6a,6b,7,8,8a,9,10,11,12,12a,12b,13,14b-icosahydropicene-2-carboxylic acid] | 6.1 |
| CC(=O)O[C@]1(C)CC[C@@]2(C)[C@@H](CC[C@]3(C)[C@@H]2C(=O)C=C2[C@@H]4C[C@@](C)(C(=O)O)CC[C@]4(C)CC[C@]23C)[C@]1(C)C(=O)OCc1oc(=O)oc1C [Compound 704-1, (2S,4aS,6aS,6bR,8aR,9S,10R,12aS,12bR,14bR)-10-(acetyloxy)-2,4a,6a,6b,9,10,12a-heptamethyl-9-{[(5-methyl-2-oxo-2H-1,3-dioxol-4-yl)methoxy]carbonyl}-13-oxo-1,2,3,4,4a,5,6,6a,6b,7,8,8a,9,10,11,12,12a,12b,13,14b-icosahydropicene-2-carboxylic acid] | 6.3 |
| CC(=O)O[C@H]1CC[C@@]2(C)[C@@H](CC[C@]3(C)[C@@H]2C(=O)C=C2[C@@H]4C[C@@](C)(C(=O)O)CC[C@]4(C)CC[C@]23C)[C@]1(C)C(=O)OCc1oc(=O)oc1C(C)(C)C [Compound 705-1, (2S,4aS,6aS,6bR,8aR,9S,10S,12aS,12bR,14bR)-10-(acetyloxy)-9-{[(5-tert-butyl-2-oxo-2H-1,3-dioxol-4-yl)methoxy]carbonyl}-2,4a,6a,6b,9,12a-hexamethyl-13-oxo-1,2,3,4,4a,5,6,6a,6b,7,8,8a,9,10,11,12,12a,12b,13,14b-icosahydropicene-2-carboxylic acid] | 6.6 |
| CCCc1oc(=O)oc1COC(=O)[C@]1(C)[C@@H](OC(C)=O)CC[C@@]2(C)[C@H]1CC[C@]1(C)[C@@H]2C(=O)C=C2[C@@H]3C[C@@](C)(C(=O)O)CC[C@]3(C)CC[C@]21C [Compound 706-1, (2S,4aS,6aS,6bR,8aR,9S,10S,12aS,12bR,14bR)-10-(acetyloxy)-2,4a,6a,6b,9,12a-hexamethyl-13-oxo-9-{[(2-oxo-5-propyl-2H-1,3-dioxol-4-yl)methoxy]carbonyl}-1,2,3,4,4a,5,6,6a,6b,7,8,8a,9,10,11,12,12a,12b,13,14b-icosahydropicene-2-carboxylic acid] | 6.7 |
| CC(=O)O[C@H]1CC[C@@]2(C)[C@@H](CC[C@]3(C)[C@@H]2C(=O)C=C2[C@@H]4C[C@@](C)(C(=O)O)CC[C@]4(C)CC[C@]23C)[C@]1(C)C(=O)OCc1oc(=O)oc1-c1ccccc1 [Compound 707-1, (2S,4aS,6aS,6bR,8aR,9S,10S,12aS,12bR,14bR)-10-(acetyloxy)-2,4a,6a,6b,9,12a-hexamethyl-13-oxo-9-{[(2-oxo-5-phenyl-2H-1,3-dioxol-4-yl)methoxy]carbonyl}-1,2,3,4,4a,5,6,6a,6b,7,8,8a,9,10,11,12,12a,12b,13,14b-icosahydropicene-2-carboxylic acid] | 7.1 |
| COCC(=O)O[C@H]1CC[C@@]2(C)[C@@H](CC[C@]3(C)[C@@H]2C(=O)C=C2[C@@H]4C[C@@](C)(C(=O)O)CC[C@]4(C)CC[C@]23C)[C@]1(C)C(=O)OCc1oc(=O)oc1C(C)C [Compound 708-1, (2S,4aS,6aS,6bR,8aR,9S,10S,12aS,12bR,14bR)-10-[(2-methoxyacetyl)oxy]-2,4a,6a,6b,9,12a-hexamethyl-13-oxo-9-({[2-oxo-5-(propan-2-yl)-2H-1,3-dioxol-4-yl]methoxy}carbonyl)-1,2,3,4,4a,5,6,6a,6b,7,8,8a,9,10,11,12,12a,12b,13,14b-icosahydropicene-2-carboxylic acid] | 6.3 |
